Tests used:
Human adenovirus 5 [1] = test: Antiviral activity against GFP-fused Human adenovirus 5 infected in 293beta5 cells assessed as inhibition of plaque formation incubated for 7 days by GFP reporter gene assay; assay type: functional, organism-based; conditions: Human mastadenovirus C, HEK293, 168 h
Human adenovirus 5 [2] = test: Antiviral activity against Human adenovirus 5 infected in 293beta5 cells assessed as inhibition of plaque formation at 10 uM incubated for 7 days by GFP reporter gene assay relative to control; assay type: functional; conditions: Human mastadenovirus C, HEK293, 168 h, time 7 day
[3] = Selectivity index, ratio of CC50 for cytotoxicity against human A549 cells assessed as reduction in cell viability incubated for 48 hrs by alamarBlue assay to IC50 for antiviral activity against Human adenovirus 5 infected in 293beta5 cells assessed as inhibition of plaque formation incubated for 7 days by GFP reporter gene assay; assay type: toxicity, cell-based; conditions: read-out: Ratio CC50/IC50
[4] = Cytotoxicity against human A549 cells assessed as reduction in cell viability incubated for 48 hrs by alamarBlue assay; assay type: cell-based

SMILES | IC50 (Human adenovirus 5 [1]) [µM] | inhibition at 10 µM (Human adenovirus 5 [2]) [%] | selectivity ratio at 48 h [3] | CC50 at 48 h [4] [µM]
CC(C)(C)OC(=O)NCCNc1ccc(NC(=O)c2cc(Cl)ccc2O)c(Cl)c1 | 2.78 | 100 | 9 | 25
O=C(Nc1ccc(NC2CCCC2)cc1)c1cc(Cl)ccc1O | 2.6 | – | 3.9 | 10
O=C(Nc1ccc(NCc2cccc(Br)n2)cc1Cl)c1cc(Cl)ccc1O | 2.26 | 100 | 40.8 | 92.3
CC(C)(C)OC(=O)N1CCC(Nc2ccc(NC(=O)c3cc(Cl)ccc3O)c(Cl)c2)CC1 | 1.21 | – | 82.6 | 100
O=C(Nc1ccc(NCc2cc(Cl)cc(Cl)c2)cc1Cl)c1cc(Cl)ccc1O | 1.43 | 100 | 9.3 | 13.3
O=C(Nc1ccc(NCc2cc(F)cc(C(F)(F)F)c2)cc1Cl)c1cc(Cl)ccc1O | 1.16 | 100 | 26.7 | 30.9
CCCCCCCCC(C)Nc1ccc(NC(=O)c2cc(Cl)ccc2O)c(Cl)c1 (stereo not drawn) | 1.21 | 100 | 18.1 | 21.9
O=C(Nc1ccc(NCc2ccncc2)cc1Cl)c1cc(Cl)ccc1O | 2.66 | 100 | 24.6 | 65.3
O=C(Nc1ccc(NCc2cccc(C(F)(F)F)c2)cc1Cl)c1cc(Cl)ccc1O | 0.88 | 100 | 15.2 | 13.3
COc1ccc(CNc2ccc(NC(=O)c3cc(Cl)ccc3O)c(Cl)c2)cc1 | 3.61 | 100 | 22.4 | 80.7
O=C(Nc1ccc(NCc2cc(Cl)cc(C(F)(F)F)c2)cc1Cl)c1cc(Cl)ccc1O | 1.79 | – | 17.3 | 30.9
O=C(Nc1ccc(N(CC2CC2)CC2CC2)cc1Cl)c1cc(Cl)ccc1O | 0.62 | 100 | 20.7 | 12.8
CC(C)[C@H](NC(=O)c1cc(Cl)ccc1O)C(=O)Nc1ccc([N+](=O)[O-])cc1Cl | 0.45 | – | 444 | –
CS(=O)(=O)Nc1ccc(Cl)cc1C(=O)Nc1ccc(NC2CCCC2)cc1Cl | 1.72 | – | 20.6 | 35.4
O=C(Nc1ccc(NCCCO)cc1Cl)c1cc(Cl)ccc1O | – | – | – | 106
CC(=O)Nc1ccc(NC(=O)c2cc(Cl)ccc2O)c(Cl)c1 | – | 0 | – | –
O=C(Nc1ccc(NCc2ccc(Br)cc2)cc1Cl)c1cc(Cl)ccc1O | 1.84 | 100 | 22.2 | 40.9
O=C(Nc1ccc(NCc2cnccc2Cl)cc1Cl)c1cc(Cl)ccc1O | 1.66 | 100 | 75.7 | 126
O=C(Nc1ccc(N(CCCO)CCCO)cc1Cl)c1cc(Cl)ccc1O | – | – | – | 114

SMILES | IC50 (Human adenovirus 5 [1]) [µM] | inhibition at 10 µM (Human adenovirus 5 [2]) [%] | selectivity ratio at 48 h [3] | CC50 at 48 h [4] [µM]
Cc1ccc(O)c(C(=O)Nc2ccc(NC3CCCC3)cc2Cl)c1 | 2.72 | – | 11.4 | 30.9
CCCNc1ccc(NC(=O)c2cc(Cl)ccc2O)c(Cl)c1 | 5.04 | 100 | 4.5 | 22.5
O=C(Nc1ccc(NCc2ccc3cn[nH]c3c2)cc1Cl)c1cc(Cl)ccc1O | 4.65 | – | 9.7 | 45.3
O=C(Nc1ccc(NCc2cc(F)cc(Cl)c2)cc1Cl)c1cc(Cl)ccc1O | 1.28 | – | 8.7 | 11.1
CN(C)c1ccc(CNc2ccc(NC(=O)c3cc(Cl)ccc3O)c(Cl)c2)cc1 | 2.73 | 100 | 9 | 24.5
O=C(NCc1ccc(NC2CCCC2)cc1Cl)c1cc(Cl)ccc1O | 7.97 | – | 3.6 | 28.3
CC(C)Nc1ccc(NC(=O)c2cc(Cl)ccc2O)c(Cl)c1 | 0.88 | 100 | 12.5 | 11
O=C(Nc1cc(NC2CCCC2)ccc1F)c1cc(Cl)ccc1O | 1.34 | – | 32.8 | 44
CC1(ON(c2ccc(NC(=O)c3cc(Cl)ccc3O)c(Cl)c2)C2(C)CCCC2)CCCC1 | 0.74 | 100 | 24.3 | 18
CCCN(CCC)c1ccc(NC(=O)c2cc(Cl)ccc2O)c(Cl)c1 | 0.67 | 100 | 16 | 10.7
O=C(Nc1cc(F)cc(C(F)(F)F)c1)c1cc(Cl)ccc1O | 0.18 | – | 667 | –
O=C(Nc1ccc(NC2CCCCC2)cc1Cl)c1cc(Cl)ccc1O | 1.34 | – | 51.1 | 68.3
CN1CCC(Oc2ccc(Cl)cc2C(=O)Nc2ccc(NC3CCCC3)cc2Cl)CC1 | – | 0 | – | –
Nc1ccc(NC(=O)c2cc(Cl)ccc2O)c(Cl)c1 | – | 0 | – | –
O=C(Nc1ccc(NCc2ccc(C(F)(F)F)cc2)cc1Cl)c1cc(Cl)ccc1O | 1.43 | – | 43.8 | 62.7
O=C(Nc1ccc(NC2CCCC2)cc1F)c1cc(Cl)ccc1O | 1.04 | – | 49.1 | 51
CC(C)[C@H](NC(=O)c1cc(Cl)ccc1O)C(=O)Nc1ccc(NC2CCCC2)cc1Cl | 3.83 | – | 28.9 | 111
CN1CCC(CNc2ccc(NC(=O)c3cc(Cl)ccc3O)c(Cl)c2)CC1 | – | 0 | – | –
